In article PMC6385358, “Discovery of ((1,2,4-oxadiazol-5-yl)pyrrolidin-3-yl)ureidyl derivatives as selective non-steroidal agonists of the G-protein coupled bile acid receptor-1” (Scientific Reports, 2019):

Key:
Assay type in all cases: cell-based
Conditions in all cases: 10 μM
PPARα = molecular target: T1, PPARα (Homo sapiens, UniProt Q07869); assay: Luciferase reporter specificity assay versus PPARα on HepG2 cells
T1 construct: host or cells: HepG2
T1 sequence (Q07869 1-468): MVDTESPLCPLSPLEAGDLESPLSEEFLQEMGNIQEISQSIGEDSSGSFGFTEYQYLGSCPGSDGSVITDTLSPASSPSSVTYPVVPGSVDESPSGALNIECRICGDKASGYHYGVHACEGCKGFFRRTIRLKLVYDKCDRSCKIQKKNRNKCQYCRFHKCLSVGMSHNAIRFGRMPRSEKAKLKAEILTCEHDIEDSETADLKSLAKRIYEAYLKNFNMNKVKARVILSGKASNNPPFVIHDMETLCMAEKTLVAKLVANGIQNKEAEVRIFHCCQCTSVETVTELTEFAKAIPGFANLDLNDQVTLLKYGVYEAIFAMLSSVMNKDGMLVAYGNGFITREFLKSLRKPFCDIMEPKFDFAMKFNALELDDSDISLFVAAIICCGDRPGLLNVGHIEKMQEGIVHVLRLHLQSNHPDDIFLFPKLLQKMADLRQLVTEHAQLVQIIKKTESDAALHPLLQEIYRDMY
Method: (§1) The activity of compounds 1–14 on GPBAR1 was evaluated in a luciferase reporter assay using HEK-293T cells transfected with GPBAR1. The efficacy of tested compounds (Table 1) was measured using taurolithocholic acid (TLCA) as GPBAR1 reference compound[10],[11]. Each compound was tested at the concentration of 10 μM and transactivation activity of TLCA on a cAMP responsive element (CRE) (i.e. TGR5/GPBAR1) was considered equal to 100%. […] Thus, 9 and 10 (Table 1) turned out to be the most promising derivatives considering their low EC50 values and high activity efficacy. To further characterize the pharmacological properties of these compounds, we expanded their in vitro profile to common off-targets for bile acid receptor ligands.
(§2) Figure 3 (A) Dose response curves of compounds 9 and 10 (concentrations ranging from 1 to 50 µM) in luciferase reporter assay. (B) Real-time PCR analysis of mRNA expression of Pro-glucagon in GLUTag cells treated with compounds 9 and 10 at 10 μM, and TLCA used as a positive control (10 μM). Values are normalized to GAPDH and are expressed relative to those of not treated cells (NT) which are arbitrarily settled to 1. The relative mRNA expression is expressed as 2^(−ΔΔCt). […]
(§3) The specificity of compounds 9 and 10 versus PPARα, PPARγ, LXRα, LXRβ, FXR and PXR was determined in luciferase reporter gene assays as previously reported[29],[31].

PXR = molecular target: T2, PXR (Homo sapiens, UniProt O75469); assay: Luciferase reporter specificity assay versus PXR on HepG2 cells
T2 construct: host or cells: HepG2
T2 sequence (O75469 1-434): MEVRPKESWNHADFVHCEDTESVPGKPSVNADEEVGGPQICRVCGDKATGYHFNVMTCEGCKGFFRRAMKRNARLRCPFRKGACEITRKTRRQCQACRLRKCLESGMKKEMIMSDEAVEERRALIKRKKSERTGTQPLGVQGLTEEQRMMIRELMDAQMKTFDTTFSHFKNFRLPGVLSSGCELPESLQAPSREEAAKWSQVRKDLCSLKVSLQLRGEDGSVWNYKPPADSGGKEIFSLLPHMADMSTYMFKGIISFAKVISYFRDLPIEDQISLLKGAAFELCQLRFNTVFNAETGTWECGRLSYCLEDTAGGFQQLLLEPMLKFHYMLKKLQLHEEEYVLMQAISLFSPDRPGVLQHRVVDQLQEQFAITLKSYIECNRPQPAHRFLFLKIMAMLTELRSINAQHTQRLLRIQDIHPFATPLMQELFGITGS
Method: as §1, §2, §3

PPARγ = molecular target: T3, PPARγ (Homo sapiens, UniProt P37231); assay: Luciferase reporter specificity assay versus PPARγ on HepG2 cells
T3 construct: host or cells: HepG2
T3 sequence (P37231 1-505): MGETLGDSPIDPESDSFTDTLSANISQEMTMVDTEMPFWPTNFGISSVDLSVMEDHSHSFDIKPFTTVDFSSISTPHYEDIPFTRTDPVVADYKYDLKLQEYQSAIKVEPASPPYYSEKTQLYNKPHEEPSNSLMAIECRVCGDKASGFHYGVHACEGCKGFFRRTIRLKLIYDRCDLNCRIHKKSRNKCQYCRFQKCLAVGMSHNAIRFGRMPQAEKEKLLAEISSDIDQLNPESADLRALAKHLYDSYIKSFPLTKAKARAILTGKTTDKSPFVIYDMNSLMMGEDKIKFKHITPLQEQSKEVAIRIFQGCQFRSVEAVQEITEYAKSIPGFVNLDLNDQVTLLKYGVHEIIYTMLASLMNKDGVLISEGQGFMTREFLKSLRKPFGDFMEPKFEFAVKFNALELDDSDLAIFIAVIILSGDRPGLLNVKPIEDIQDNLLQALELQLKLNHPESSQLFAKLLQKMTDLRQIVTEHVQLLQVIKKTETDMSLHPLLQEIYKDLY
Method: as §1, §2, §3

| PPARα transactivation (PPARα) | PXR transactivation (PXR) | PPARγ transactivation (PPARγ) | Compound |
| --- | --- | --- | --- |
| unable to induce | unable to induce | unable to induce | O=C(NC1CCCCC1)N[C@@H]1CN[C@H](c2nc(-c3ccccc3)no2)C1 [Compound 10] |
| unable to induce | unable to induce | unable to induce | O=C(Nc1ccc(Cl)cc1)N[C@@H]1CN[C@H](c2nc(-c3ccccc3)no2)C1 [Compound 9] |
